test system: not listed separately; assay: DRUGMATRIX: Phorbol Ester radioligand binding (ligand: [3H] PDBu); assay type: cell membranes, Mus musculus, ICR, Brain, Membrane; settings: Not Active = under 50% inhibition at 10 µM

Row | Molecule | IC50 | Ki
1 | Cc1ccc(C(=O)c2ccc(CC(=O)O)n2C)cc1 [TOLMETIN] | Not Active | Not Active
2 | CC(=O)OCC(COC(C)=O)OC(C)=O [TRIACETIN] | Not Active | Not Active
3 | CN1CCN(CCCN2c3ccccc3Sc3ccc(C(F)(F)F)cc32)CC1 [TRIFLUOPERAZINE] | Not Active | Not Active
4 | TRANSPLATIN | Not Active | Not Active
5 | ZIRCONIUM(IV) CHLORIDE | Not Active | Not Active

test system: not listed separately; assay: DRUGMATRIX: Serotonin (5-Hydroxytryptamine) 5-HT3 radioligand binding (ligand: [3H] GR-65630); assay type: cell membranes, Membrane; settings: hek293; Not Active = under 50% inhibition at 10 µM

Row | Molecule | IC50 | Ki
6 | Cc1ccc(C(=O)c2ccc(CC(=O)O)n2C)cc1 [TOLMETIN] | Not Active | Not Active
7 | CC(=O)OCC(COC(C)=O)OC(C)=O [TRIACETIN] | Not Active | Not Active
8 | CN1CCN(CCCN2c3ccccc3Sc3ccc(C(F)(F)F)cc32)CC1 [TRIFLUOPERAZINE] | Not Active | Not Active
9 | TRANSPLATIN | Not Active | Not Active
10 | ZIRCONIUM(IV) CHLORIDE | Not Active | Not Active

target: D(1A) dopamine receptor (Homo sapiens, UniProt P21728); assay: DRUGMATRIX: Dopamine D1 radioligand binding (ligand: [3H] SCH-23390); assay type: cell membranes, CHO, Membrane; settings: cho; Not Active = under 50% inhibition at 10 µM
Sequence (P21728 whole entry): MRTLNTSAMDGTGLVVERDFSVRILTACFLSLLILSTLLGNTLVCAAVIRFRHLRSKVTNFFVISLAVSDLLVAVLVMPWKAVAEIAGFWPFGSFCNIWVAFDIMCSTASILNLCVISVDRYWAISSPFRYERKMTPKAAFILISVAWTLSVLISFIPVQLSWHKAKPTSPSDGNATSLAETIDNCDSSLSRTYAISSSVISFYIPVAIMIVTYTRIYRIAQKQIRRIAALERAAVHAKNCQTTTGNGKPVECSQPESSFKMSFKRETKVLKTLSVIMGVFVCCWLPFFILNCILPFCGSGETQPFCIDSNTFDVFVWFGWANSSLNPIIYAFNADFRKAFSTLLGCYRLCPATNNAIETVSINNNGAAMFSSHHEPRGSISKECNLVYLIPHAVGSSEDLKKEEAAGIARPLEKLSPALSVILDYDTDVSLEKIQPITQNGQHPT

Row | Molecule | IC50 | Ki
11 | Cc1ccc(C(=O)c2ccc(CC(=O)O)n2C)cc1 [TOLMETIN] | Not Active | –
12 | CC(=O)OCC(COC(C)=O)OC(C)=O [TRIACETIN] | Not Active | –
13 | CN1CCN(CCCN2c3ccccc3Sc3ccc(C(F)(F)F)cc32)CC1 [TRIFLUOPERAZINE] | Not Active | –
14 | TRANSPLATIN | Not Active | Not Active
15 | ZIRCONIUM(IV) CHLORIDE | Not Active | Not Active

target: T1, Glucocorticoid receptor (Homo sapiens, UniProt P04150); settings: hela s3; also: in other assays of this panel Not Active means under 50% inhibition at 10 µM
T1 sequence (P04150 whole entry): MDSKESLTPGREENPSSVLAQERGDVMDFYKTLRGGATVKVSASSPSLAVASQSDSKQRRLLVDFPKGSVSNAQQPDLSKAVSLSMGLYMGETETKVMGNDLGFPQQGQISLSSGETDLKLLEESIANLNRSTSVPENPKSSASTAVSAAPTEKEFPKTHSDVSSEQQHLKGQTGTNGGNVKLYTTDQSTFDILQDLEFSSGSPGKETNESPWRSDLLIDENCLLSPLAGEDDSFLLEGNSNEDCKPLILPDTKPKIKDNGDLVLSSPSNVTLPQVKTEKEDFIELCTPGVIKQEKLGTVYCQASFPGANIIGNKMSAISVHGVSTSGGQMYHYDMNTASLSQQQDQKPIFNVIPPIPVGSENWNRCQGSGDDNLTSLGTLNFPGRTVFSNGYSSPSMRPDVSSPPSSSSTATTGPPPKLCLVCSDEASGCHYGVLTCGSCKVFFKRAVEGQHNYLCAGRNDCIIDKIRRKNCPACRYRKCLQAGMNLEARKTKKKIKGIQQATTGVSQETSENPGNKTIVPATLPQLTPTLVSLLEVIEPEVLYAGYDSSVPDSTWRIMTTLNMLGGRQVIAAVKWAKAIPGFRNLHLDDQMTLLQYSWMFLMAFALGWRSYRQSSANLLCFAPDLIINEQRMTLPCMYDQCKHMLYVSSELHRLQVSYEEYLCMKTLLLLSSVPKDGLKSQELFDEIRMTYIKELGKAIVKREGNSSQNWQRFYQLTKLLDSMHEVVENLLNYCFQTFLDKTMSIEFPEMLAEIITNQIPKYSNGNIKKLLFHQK

Row | Molecule | IC50 | Ki
16 | CN1[C@@H]2CC[C@H]1C[C@@H](OC(c1ccccc1)c1ccccc1)C2 [BENZTROPINE] | Not Active | –
17 | CN1CCN(C2=Nc3cc(Cl)ccc3Nc3ccccc32)CC1 [CLOZAPINE] | Not Active | –
18 | CN(C)C(=O)C(CCN1CCC(O)(c2ccc(Cl)cc2)CC1)(c1ccccc1)c1ccccc1 [LOPERAMIDE] | Not Active | –
19 | Clc1ccc(COC(Cn2ccnc2)c2ccc(Cl)cc2Cl)c(Cl)c1 (stereo unspecified) [MICONAZOLE] | Not Active | –
20 | Oc1ccc2c3c1O[C@H]1[C@@H](O)CC[C@@]4(O)[C@@H](C2)N(CC2CCC2)CC[C@]314 [NALBUPHINE] | Not Active | –
21 | C[S+]([O-])c1ccc(-c2nc(-c3ccncc3)c(-c3ccc(F)cc3)[nH]2)cc1 (stereo unspecified) [SB-203580] | Not Active | –
22 | CC(=O)OCC(COC(C)=O)OC(C)=O [TRIACETIN] | Not Active | –
23 | CN1CCN(CCCN2c3ccccc3Sc3ccc(C(F)(F)F)cc32)CC1 [TRIFLUOPERAZINE] | Not Active | –
24 | TRANSPLATIN | Not Active | Not Active
25 | ZIRCONIUM(IV) CHLORIDE | Not Active | Not Active

test system: not listed separately; assay: DRUGMATRIX: GABAA, Chloride Channel, TBOB radioligand binding (ligand: [3H] TBOB); assay type: cell membranes, Rattus norvegicus, Wistar, Cerebral cortex, Membrane; settings: Not Active = under 50% inhibition at 10 µM

Row | Molecule | IC50 | Ki
26 | Cc1ccc(C(=O)c2ccc(CC(=O)O)n2C)cc1 [TOLMETIN] | Not Active | Not Active
27 | CC(=O)OCC(COC(C)=O)OC(C)=O [TRIACETIN] | Not Active | Not Active
28 | CN1CCN(CCCN2c3ccccc3Sc3ccc(C(F)(F)F)cc32)CC1 [TRIFLUOPERAZINE] | Not Active | Not Active
29 | TRANSPLATIN | Not Active | Not Active
30 | ZIRCONIUM(IV) CHLORIDE | Not Active | Not Active

test system: not listed separately; assay: DRUGMATRIX: Sodium/nucleoside co-transporter radioligand binding (ligand: nitrobenzylthioinosine); assay type: cell membranes, Cavia porcellus, Dunkin-Hartley, Cerebral cortex, Membrane; settings: Not Active = under 50% inhibition at 10 µM

Row | Molecule | IC50 | Ki
31 | Cc1ccc(C(=O)c2ccc(CC(=O)O)n2C)cc1 [TOLMETIN] | Not Active | Not Active
32 | CC(=O)OCC(COC(C)=O)OC(C)=O [TRIACETIN] | Not Active | Not Active
33 | CN1CCN(CCCN2c3ccccc3Sc3ccc(C(F)(F)F)cc32)CC1 [TRIFLUOPERAZINE] | Not Active | Not Active
34 | TRANSPLATIN | Not Active | Not Active
35 | ZIRCONIUM(IV) CHLORIDE | Not Active | Not Active

target: Beta-1 adrenergic receptor (Homo sapiens, UniProt P08588); assay: DRUGMATRIX: Adrenergic beta1 radioligand binding (ligand: [125I] Cyanopindolol); assay type: cell membranes, CHO-K1, Membrane; settings: cho-k1; Not Active = under 50% inhibition at 10 µM
Sequence (P08588 whole entry): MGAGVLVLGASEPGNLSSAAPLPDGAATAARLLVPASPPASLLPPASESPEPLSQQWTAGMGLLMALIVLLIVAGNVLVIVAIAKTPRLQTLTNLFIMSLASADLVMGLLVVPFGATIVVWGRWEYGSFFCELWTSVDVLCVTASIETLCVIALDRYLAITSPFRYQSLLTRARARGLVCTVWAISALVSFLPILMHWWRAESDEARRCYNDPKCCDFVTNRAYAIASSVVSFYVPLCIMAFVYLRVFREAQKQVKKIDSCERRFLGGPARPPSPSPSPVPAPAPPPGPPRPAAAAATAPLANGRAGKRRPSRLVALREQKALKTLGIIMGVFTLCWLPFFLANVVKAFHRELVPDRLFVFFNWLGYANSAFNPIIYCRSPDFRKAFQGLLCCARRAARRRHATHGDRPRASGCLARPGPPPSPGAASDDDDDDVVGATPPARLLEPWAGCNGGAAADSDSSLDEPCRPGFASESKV

Row | Molecule | IC50 | Ki
36 | CN1CCN(C2=Nc3cc(Cl)ccc3Nc3ccccc32)CC1 [CLOZAPINE] | Not Active | –
37 | Oc1ccc2c3c1O[C@H]1[C@@H](O)CC[C@@]4(O)[C@@H](C2)N(CC2CCC2)CC[C@]314 [NALBUPHINE] | Not Active | –
38 | OCCOCCN1CCN(C2=Nc3ccccc3Sc3ccccc32)CC1 [QUETIAPINE] | Not Active | –
39 | C[S+]([O-])c1ccc(-c2nc(-c3ccncc3)c(-c3ccc(F)cc3)[nH]2)cc1 (stereo unspecified) [SB-203580] | Not Active | –
40 | Cc1ccc(C(=O)c2ccc(CC(=O)O)n2C)cc1 [TOLMETIN] | Not Active | –
41 | CC(=O)OCC(COC(C)=O)OC(C)=O [TRIACETIN] | Not Active | –
42 | CN1CCN(CCCN2c3ccccc3Sc3ccc(C(F)(F)F)cc32)CC1 [TRIFLUOPERAZINE] | Not Active | –
43 | TRANSPLATIN | Not Active | Not Active
44 | ZIRCONIUM(IV) CHLORIDE | Not Active | Not Active

target: Kappa-type opioid receptor (Homo sapiens, UniProt P41145); assay: DRUGMATRIX: Opiate kappa (OP2, KOP) radioligand binding (ligand: [3H] Diprenorphine); assay type: cell membranes, HEK293, Membrane; settings: Not Active = under 50% inhibition at 10 µM
Sequence (P41145 whole entry): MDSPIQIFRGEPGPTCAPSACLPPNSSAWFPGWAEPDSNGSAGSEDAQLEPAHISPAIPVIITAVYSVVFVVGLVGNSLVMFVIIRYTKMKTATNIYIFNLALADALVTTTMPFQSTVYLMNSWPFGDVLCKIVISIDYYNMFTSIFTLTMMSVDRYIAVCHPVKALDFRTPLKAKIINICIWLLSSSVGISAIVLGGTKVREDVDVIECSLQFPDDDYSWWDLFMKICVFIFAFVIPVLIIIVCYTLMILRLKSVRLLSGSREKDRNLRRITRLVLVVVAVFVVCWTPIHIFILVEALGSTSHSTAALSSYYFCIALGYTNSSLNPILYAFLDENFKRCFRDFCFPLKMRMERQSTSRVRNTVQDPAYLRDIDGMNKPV

Row | Molecule | Ki [µM]
45 | Clc1ccc(COC(Cn2ccnc2)c2ccc(Cl)cc2Cl)c(Cl)c1 (stereo unspecified) [MICONAZOLE] | 2.64

same assay, conditions: Not Active = under 50% inhibition at 10 µM; read-out: IC50

Row | Molecule | IC50 [µM]
46 | Clc1ccc(COC(Cn2ccnc2)c2ccc(Cl)cc2Cl)c(Cl)c1 (stereo unspecified) [MICONAZOLE] | 6.59

same assay, conditions: hek293; Not Active = under 50% inhibition at 10 µM

Row | Molecule | IC50
47 | CN1[C@@H]2CC[C@H]1C[C@@H](OC(c1ccccc1)c1ccccc1)C2 [BENZTROPINE] | Not Active
48 | CN1CCN(C2=Nc3cc(Cl)ccc3Nc3ccccc32)CC1 [CLOZAPINE] | Not Active
49 | CC(C)NC[C@@H](O)COc1cccc2ccccc12 [DEXPROPRANOLOL] | Not Active
50 | CC(C)NC[C@H](O)COc1cccc2ccccc12 [LEVOPROPRANOLOL] | Not Active
51 | OCCOCCN1CCN(C2=Nc3ccccc3Sc3ccccc32)CC1 [QUETIAPINE] | Not Active
52 | C[S+]([O-])c1ccc(-c2nc(-c3ccncc3)c(-c3ccc(F)cc3)[nH]2)cc1 (stereo unspecified) [SB-203580] | Not Active
53 | Cc1ccc(C(=O)c2ccc(CC(=O)O)n2C)cc1 [TOLMETIN] | Not Active
54 | CC(=O)OCC(COC(C)=O)OC(C)=O [TRIACETIN] | Not Active
55 | CN1CCN(CCCN2c3ccccc3Sc3ccc(C(F)(F)F)cc32)CC1 [TRIFLUOPERAZINE] | Not Active
